Read-outs that look alike come from different tables or passages of the source.
Legend:
Francisella tularensis [1] = type: in vivo, BALB/c mice; details: for % SURVIVALS AT DAY 14 POST INFECTION: single dose
Francisella tularensis [2] = type: in vivo, BALB/c mice; details: for % SURVIVALS AT DAY 14 POST INFECTION: single dose 1 mg per mouse
[3] = patients taking both ciprofloxacin and theophylline; many to the toxic range; cited from earlier work
[4] = in vivo; cited from earlier work

For `O=C(O)c1cn(C2CC2)c2cc(N3CCNCC3)c(F)cc2c1=O` [Ciprofloxacin, ciprofloxacin], the “% SURVIVALS AT DAY 14 POST INFECTION” value (Francisella tularensis [1]; INTRANSAL infection and treatment, 1 day after infection) was 50%, the “% SURVIVALS AT DAY 14 POST INFECTION” value (Francisella tularensis [1]; INTRANSAL infection and treatment, 2 days after infection) was 0% and the “% SURVIVALS AT DAY 14 POST INFECTION” value (Francisella tularensis [1]; INTRANSAL infection and treatment, 3 days after infection) was 25%. For the same molecule, the “% SURVIVALS AT DAY 14 POST INFECTION” value (Francisella tularensis [1]; INTRANSAL infection and treatment, 7 days after infection) was 0%, the “% SURVIVALS AT DAY 14 POST INFECTION” value (Francisella tularensis [1]; INTRAVENOUS infection and treatment, 1 day after infection) was 0% and the “% SURVIVALS AT DAY 14 POST INFECTION” value (Francisella tularensis [1]; INTRAVENOUS infection and treatment, 2 days after infection) was 25%. The “% SURVIVALS AT DAY 14 POST INFECTION” value (Francisella tularensis [1]; INTRAVENOUS infection and treatment, 3 days after infection) was 0%, the “% SURVIVALS AT DAY 14 POST INFECTION” value (Francisella tularensis [1]; INTRAVENOUS infection and treatment, 7 days after infection) was 12% and the “efficacy in the treatment of infected mice (in words)” value (Francisella tularensis [1]; single dose at day 1, 2, 3 and 7 post infection) was “totally ineffective”. The “% SURVIVALS AT DAY 14 POST INFECTION” value (Francisella tularensis [2]; INTRANSAL pretreatment and infection, 1 day before infection) was 0%, the “% SURVIVALS AT DAY 14 POST INFECTION” value (Francisella tularensis [2]; INTRANSAL pretreatment and infection, 2 days before infection) was 0% and the “% SURVIVALS AT DAY 14 POST INFECTION” value (Francisella tularensis [2]; INTRANSAL pretreatment and infection, 3 days before infection) was 0%. The “% SURVIVALS AT DAY 14 POST INFECTION” value (Francisella tularensis [2]; INTRANSAL pretreatment and infection, 7 days before infection) was 12%, the “% SURVIVALS AT DAY 14 POST INFECTION” value (Francisella tularensis [2]; INTRAVENOUS pretreatment and infection, 1 day before infection) was 8% and the “% SURVIVALS AT DAY 14 POST INFECTION” value (Francisella tularensis [2]; INTRAVENOUS pretreatment and infection, 2 days before infection) was 0%. For the same molecule, the “% SURVIVALS AT DAY 14 POST INFECTION” value (Francisella tularensis [2]; INTRAVENOUS pretreatment and infection, 3 days before infection) was 12%, the “% SURVIVALS AT DAY 14 POST INFECTION” value (Francisella tularensis [2]; INTRAVENOUS pretreatment and infection, 7 days before infection) was 0% and the “protection by single dose before infection (in words)” value (Francisella tularensis [2]; single dose before infection with 10 LD50) was “succumbed to 10 LD₅₀ of tularemia in a manner similar to the control untreated mice”. The “patients who developed increases of theophylline” value [3] was 20 of 33.

For `CC1(C)S[C@@H]2[C@H](NC(=O)Cc3ccccc3)C(=O)N2[C@H]1C(=O)O` [penicillin G], the bioavailability rates [4] is listed as 45-50%.

Reference: patent EP0652008A1 (priority 1993, dated 1995)
